Measured values as given in PubChem BioAssay AID1745844 (Carcinogenic Potency Database (CPDB), 2022).
Activity calls are given as the source filed them. The rule behind the calls is not given here.

Tested on: rodent lifetime carcinogenesis bioassay, tumor incidence TD50
Assay: chronic cancer bioassays in animals – CPDB, compiled studies (AID 1745844)
[1] = mouse, strain B6C3F1, females, inhaled, site: any site (literature study), lesion: several types, types named in the paper, dosed 103 weeks, study length 104 weeks
[2] = mouse, strain B6C3F1, females, inhaled, site: lung, lesion: alveolar/bronchiolar adenoma + alveolar/bronchiolar carcinoma, dosed 103 weeks, study length 104 weeks
[3] = mouse, strain B6C3F1, females, inhaled, site: lung, lesion: alveolar/bronchiolar adenoma, dosed 103 weeks, study length 104 weeks
[4] = mouse, strain B6C3F1, males, inhaled, site: any site (literature study), lesion: several types, types named in the paper, dosed 103 weeks, study length 104 weeks

CC1CO1 (configuration not stated)
TD50 (mouse, strain B6C3F1, females, inhaled, site: all sites, lesion: hemangioma + hemangiosarcoma, dosed 103 weeks, study length 104 weeks): 863 mg/kg/day | TD50 (mouse, strain B6C3F1, females, inhaled, site: all sites, lesion: hemangioma, dosed 103 weeks, study length 104 weeks): 1810 mg/kg/day | TD50 (mouse, strain B6C3F1, females, inhaled, site: all sites, lesion: hemangiosarcoma, dosed 103 weeks, study length 104 weeks): 1610 mg/kg/day | TD50 [1]: 226 mg/kg/day | TD50 (mouse, strain B6C3F1, females, inhaled, site: liver, lesion: hepatocellular adenoma + hepatocellular carcinoma + neoplastic nodule, dosed 103 weeks, study length 104 weeks): 979 mg/kg/day | TD50 [2]: 588 mg/kg/day | TD50 [3]: 588 mg/kg/day | TD50 (mouse, strain B6C3F1, females, inhaled, site: mammary gland, lesion: adenocarcinoma + adenosquamous carcinoma, dosed 103 weeks, study length 104 weeks): 1260 mg/kg/day | TD50 (mouse, strain B6C3F1, females, inhaled, site: mammary gland, lesion: adenosquamous carcinoma, dosed 103 weeks, study length 104 weeks): 2770 mg/kg/day | TD50 (mouse, strain B6C3F1, females, inhaled, site: nasal cavity, lesion: hemangioma + hemangiosarcoma, dosed 103 weeks, study length 104 weeks): 1210 mg/kg/day | TD50 (mouse, strain B6C3F1, females, inhaled, site: nasal cavity, lesion: hemangioma, dosed 103 weeks, study length 104 weeks): 2020 mg/kg/day | TD50 (mouse, strain B6C3F1, males, inhaled, site: all sites, lesion: hemangioma + hemangiosarcoma, dosed 103 weeks, study length 104 weeks): 753 mg/kg/day | TD50 [4]: 722 mg/kg/day | TD50 (mouse, strain B6C3F1, males, inhaled, site: nasal cavity, lesion: hemangioma + hemangiosarcoma, dosed 103 weeks, study length 104 weeks): 732 mg/kg/day | TD50 (mouse, strain B6C3F1, males, inhaled, site: nasal cavity, lesion: hemangioma, dosed 103 weeks, study length 104 weeks): 1470 mg/kg/day | TD50 (mouse, strain B6C3F1, males, inhaled, site: nasal cavity, lesion: hemangiosarcoma, dosed 103 weeks, study length 104 weeks): 1610 mg/kg/day | TD50 (rat, strain Fischer 344, females, inhaled, site: any site (literature study), lesion: several types, types named in the paper, dosed 103 weeks, study length 104 weeks): 124 mg/kg/day | TD50 (rat, strain Fischer 344, females, inhaled, site: cervix uteri + uterus, lesion: endometrial stromal polyp + endometrial stromal sarcoma, dosed 103 weeks, study length 104 weeks): 156 mg/kg/day | TD50 (rat, strain Fischer 344, females, inhaled, site: nasal cavity, lesion: papillary adenoma, dosed 103 weeks, study length 104 weeks): 732 mg/kg/day | TD50 (rat, strain Fischer 344, males, inhaled, site: adrenal gland, lesion: pheochromocytoma, dosed 101 weeks, study length 104 weeks): 35.1 mg/kg/day | TD50 (rat, strain Fischer 344, males, inhaled, site: any site (literature study), lesion: several types, types named in the paper, dosed 103 weeks, study length 104 weeks): 220 mg/kg/day | TD50 (rat, strain Fischer 344, males, inhaled, site: liver, lesion: hepatocellular adenoma + hepatocellular carcinoma + neoplastic nodule, dosed 103 weeks, study length 104 weeks): 528 mg/kg/day | TD50 (rat, strain Fischer 344, males, inhaled, site: liver, lesion: hepatocellular carcinoma, dosed 101 weeks, study length 104 weeks): 2960 mg/kg/day | TD50 (rat, strain Fischer 344, males, inhaled, site: nasal cavity, lesion: papillary adenoma, dosed 103 weeks, study length 104 weeks): 826 mg/kg/day | TD50 (rat, strain Sprague-Dawley, females, by gavage, site: forestomach, lesion: squamous-cell carcinoma, dosed 109 weeks, study length 150 weeks): 44.3 mg/kg/day | TD50 (rat, strain Sprague-Dawley, females, by gavage, site: stomach, lesion: several types, types named in the paper, dosed 109 weeks, study length 150 weeks): 39.5 mg/kg/day | TD50 (rat, strain Wistar-random, females, inhaled, site: any site (literature study), lesion: malignant tumor, dosed 123 weeks, study length 123 weeks): 150 mg/kg/day | TD50 (rat, strain Wistar-random, females, inhaled, site: any site (literature study), lesion: one or several types, types not named, dosed 123 weeks, study length 123 weeks): 25.7 mg/kg/day | TD50 (rat, strain Wistar-random, females, inhaled, site: liver, lesion: cholangioma, dosed 123 weeks, study length 123 weeks): 2460 mg/kg/day | TD50 (rat, strain Wistar-random, females, inhaled, site: mammary gland, lesion: adenocarcinoma, dosed 123 weeks, study length 123 weeks): 813 mg/kg/day | TD50 (rat, strain Wistar-random, females, inhaled, site: mammary gland, lesion: fibroadenoma, dosed 123 weeks, study length 123 weeks): 92.6 mg/kg/day | TD50 (rat, strain Wistar-random, males, inhaled, site: any site (literature study), lesion: malignant tumor, dosed 124 weeks, study length 124 weeks): 101 mg/kg/day | TD50 (rat, strain Wistar-random, males, inhaled, site: any site (literature study), lesion: one or several types, types not named, dosed 124 weeks, study length 124 weeks): 79.3 mg/kg/day | TD50 (rat, strain Wistar-random, males, inhaled, site: respiratory system, lesion: carcinoma, dosed 124 weeks, study length 124 weeks): 896 mg/kg/day

c1ccc2ccccc2c1
TD50 [1]: 128 mg/kg/day | TD50 [2]: 163 mg/kg/day | TD50 [3]: 171 mg/kg/day | TD50 (mouse, strain B6C3F1, females, inhaled, site: lung, lesion: alveolar/bronchiolar carcinoma, dosed 103 weeks, study length 104 weeks): 4020 mg/kg/day | carcinogen call [4]: negative (inactive) | TD50 (rat, strain Fischer 344, females, inhaled, site: nasal cavity, olfactory epithelium + nasal cavity, respiratory epithelium, lesion: neuroblastoma + adenoma, dosed 105 weeks, study length 105 weeks): 37.3 mg/kg/day | TD50 (rat, strain Fischer 344, females, inhaled, site: nasal cavity, olfactory epithelium, lesion: neuroblastoma, dosed 105 weeks, study length 105 weeks): 52.9 mg/kg/day | TD50 (rat, strain Fischer 344, females, inhaled, site: nasal cavity, respiratory epithelium, lesion: adenoma, dosed 105 weeks, study length 105 weeks): 121 mg/kg/day | TD50 (rat, strain Fischer 344, males, inhaled, site: any site (literature study), lesion: several types, types named in the paper, dosed 104 weeks, study length 104 weeks): 27.5 mg/kg/day | TD50 (rat, strain Fischer 344, males, inhaled, site: liver, lesion: hepatocellular adenoma + hepatoblastoma + hepatocellular carcinoma, dosed 104 weeks, study length 104 weeks): 171 mg/kg/day | TD50 (rat, strain Fischer 344, males, inhaled, site: mammary gland, lesion: fibroadenoma, dosed 104 weeks, study length 104 weeks): 133 mg/kg/day | TD50 (rat, strain Fischer 344, males, inhaled, site: nasal cavity, olfactory epithelium + nasal cavity, respiratory epithelium, lesion: neuroblastoma + adenoma, dosed 104 weeks, study length 104 weeks): 12.3 mg/kg/day | TD50 (rat, strain Fischer 344, males, inhaled, site: nasal cavity, olfactory epithelium, lesion: neuroblastoma, dosed 104 weeks, study length 104 weeks): 88 mg/kg/day | TD50 (rat, strain Fischer 344, males, inhaled, site: nasal cavity, respiratory epithelium, lesion: adenoma, dosed 104 weeks, study length 104 weeks): 14 mg/kg/day

Nc1ccc2c(c1)oc1ccccc12
TD50 (rat, strain Wistar, males, in feed, site: any site (literature study), lesion: benign tumor, dosed 89 weeks, study length 89 weeks): 1.57 mg/kg/day | TD50 (rat, strain Wistar, males, in feed, site: any site (literature study), lesion: malignant tumor, dosed 89 weeks, study length 89 weeks): 2.48 mg/kg/day | TD50 (rat, strain Wistar, males, in feed, site: liver, lesion: hepatoma, dosed 89 weeks, study length 89 weeks): 9.44 mg/kg/day

CC(C)Oc1ccccc1OC(=O)N(C)N=O
TD50 (rat, strain Sprague-Dawley, males, by gavage, site: forestomach, lesion: carcinoma, dosed 31 weeks, study length 90 weeks): 0.434 mg/kg/day | TD50 (rat, strain Sprague-Dawley, males, by gavage, site: forestomach, lesion: one or several types, types not named, dosed 31 weeks, study length 90 weeks): 0.364 mg/kg/day

CC=CC(=O)Oc1c(C(C)CCCCCC)cc([N+](=O)[O-])cc1[N+](=O)[O-] (configuration not stated)
carcinogen call (mouse, strain B6AKF1, females, oral dosing, site: any site (literature study), lesion: several types, types named in the paper, dosed 76 weeks, study length 76 weeks): negative (inactive) | carcinogen call (mouse, strain B6AKF1, females, oral dosing, site: liver, lesion: hepatoma, dosed 76 weeks, study length 76 weeks): negative (inactive) | carcinogen call (mouse, strain B6AKF1, females, oral dosing, site: lung, lesion: adenoma, dosed 76 weeks, study length 76 weeks): negative (inactive) | TD50 (mouse, strain B6AKF1, males, oral dosing, site: any site (literature study), lesion: several types, types named in the paper, dosed 76 weeks, study length 76 weeks): 11.9 mg/kg/day (inactive) | TD50 (mouse, strain B6AKF1, males, oral dosing, site: liver, lesion: hepatoma, dosed 76 weeks, study length 76 weeks): 2.07 mg/kg/day (inactive) | TD50 (mouse, strain B6AKF1, males, oral dosing, site: lung, lesion: adenoma, dosed 76 weeks, study length 76 weeks): 19.1 mg/kg/day (inactive) | TD50 (mouse, strain B6C3F1, females, oral dosing, site: any site (literature study), lesion: several types, types named in the paper, dosed 76 weeks, study length 76 weeks): 1.21 mg/kg/day (inactive) | TD50 (mouse, strain B6C3F1, females, oral dosing, site: liver, lesion: hepatoma, dosed 76 weeks, study length 76 weeks): 2.5 mg/kg/day (inactive) | carcinogen call (mouse, strain B6C3F1, females, oral dosing, site: lung, lesion: several types, types named in the paper, dosed 76 weeks, study length 76 weeks): negative (inactive) | TD50 (mouse, strain B6C3F1, males, oral dosing, site: any site (literature study), lesion: several types, types named in the paper, dosed 76 weeks, study length 76 weeks): 0.405 mg/kg/day (inactive) | TD50 (mouse, strain B6C3F1, males, oral dosing, site: liver, lesion: hepatoma, dosed 76 weeks, study length 76 weeks): 2.32 mg/kg/day (inactive) | carcinogen call (mouse, strain B6C3F1, males, oral dosing, site: lung, lesion: several types, types named in the paper, dosed 76 weeks, study length 76 weeks): negative (inactive)

O=NN1CCCC1c1ccc[n+]([O-])c1 (configuration not stated)
TD50 (hamster, strain Syrian Golden, females, in drinking water, site: liver, lesion: angiosarcoma, dosed 31 weeks, study length 96 weeks): 39 mg/kg/day (inactive) | TD50 (rat, strain Fischer 344, females, in drinking water, site: esophagus, lesion: several types, types named in the paper, dosed 36 weeks, study length 104 weeks): 5.65 mg/kg/day | TD50 (rat, strain Fischer 344, females, in drinking water, site: nasal cavity, lesion: several types, types named in the paper, dosed 36 weeks, study length 104 weeks): 1.86 mg/kg/day | TD50 (rat, strain Fischer 344, males, in drinking water, site: esophagus, lesion: papilloma, dosed 36 weeks, study length 104 weeks): 2.64 mg/kg/day | TD50 (rat, strain Fischer 344, males, in drinking water, site: esophagus, lesion: several types, types named in the paper, dosed 36 weeks, study length 104 weeks): 1.63 mg/kg/day | TD50 (rat, strain Fischer 344, males, in drinking water, site: nasal cavity, lesion: malignant tumor, dosed 36 weeks, study length 104 weeks): 1.63 mg/kg/day | TD50 (rat, strain Fischer 344, males, in drinking water, site: nasal cavity, lesion: papilloma, dosed 36 weeks, study length 104 weeks): 2.64 mg/kg/day | TD50 (rat, strain Fischer 344, males, in drinking water, site: nasal cavity, lesion: several types, types named in the paper, dosed 36 weeks, study length 104 weeks): 0.573 mg/kg/day

S=C(NC1CCCCC1)NC1CCCCC1
TD50 (mouse, strain B6C3F1, females, in feed, site: any site (literature study), lesion: several types, types named in the paper, dosed 109 weeks, study length 103 weeks): 122000 mg/kg/day (inactive) | TD50 (mouse, strain B6C3F1, females, in feed, site: lung, lesion: alveolar/bronchiolar adenoma + alveolar/bronchiolar carcinoma, dosed 109 weeks, study length 103 weeks): 1.11e+08 mg/kg/day | carcinogen call (mouse, strain B6C3F1, males, in feed, site: any site (literature study), lesion: several types, types named in the paper, dosed 109 weeks, study length 103 weeks): negative (inactive) | carcinogen call (rat, strain Fischer 344, females, in feed, site: any site (literature study), lesion: several types, types named in the paper, dosed 109 weeks, study length 109 weeks): negative (inactive) | TD50 (rat, strain Fischer 344, males, in feed, site: any site (literature study), lesion: several types, types named in the paper, dosed 109 weeks, study length 109 weeks): 3910 mg/kg/day | TD50 (rat, strain Fischer 344, males, in feed, site: liver, lesion: hepatocellular adenoma + hepatocellular carcinoma + neoplastic nodule, dosed 109 weeks, study length 109 weeks): 15600 mg/kg/day | TD50 (rat, strain Fischer 344, males, in feed, site: skin, lesion: basal-cell carcinoma, dosed 109 weeks, study length 109 weeks): 26100 mg/kg/day | TD50 (rat, strain Fischer 344, males, in feed, site: thyroid gland, lesion: c-cell adenoma, dosed 109 weeks, study length 109 weeks): 5480 mg/kg/day (inactive) | TD50 (rat, strain Fischer 344, males, in feed, site: thyroid gland, lesion: follicular-cell adenoma + follicular-cell carcinoma, dosed 109 weeks, study length 109 weeks): 7410 mg/kg/day
